Assay results reported in patent US4162316A (priority 1975, dated 1979).

Test system: male guinea-pigs
Assay: animal or person
Type: in vivo
Settings: Cavia porcellus, ip, 2 h, read-out: Antitussive activity ED50-value (i.p.)

Row | Compound | ED50 [mg/kg]
1 | COc1ccccc1N1CCN(C(Cc2cccc(C)c2)c2ccccc2)CC1 (racemic) [Compound 31, dl-1-(2-Methoxyphenyl)-4-[1-phenyl-2-(3-tolyl)ethyl]-piperazine] | ~6
2 | COc1ccc2c3c1O[C@H]1[C@@H](O)C=C[C@H]4[C@@H](C2)N(C)CC[C@@]341 [L, Codeine phosphate, reference compound] | 12.2
3 | COc1ccccc1N1CCN(C(Cc2cccc(C)c2)c2ccccc2)CC1 (stereo not drawn) [Compound 32, l-1-(2-Methoxyphenyl)-4-[1-phenyl-2-(3-tolyl)ethyl]piperazine] | ~6
